This note sets out measurements from US20250346588A1, “IMIDAZOPYRIDINE AND OXAZOLOPYRIDINE DERIVATIVES AND ANALOGS THEREOF, METHODS OF PREPARATION THEREOF, METHODS OF HIF-1/2A PATHWAY INHIBITION, AND INDUCTION OF FERROPTOSIS” (KUDA THERAPEUTICS, INC., priority 2022, published 2025).

The target of one assay is HIF-2α transcriptional activity. The assay is described as follows: Hypoxia-responsive element-driven luciferase (HRE-Luc) screen. It counts as cell-based, human. To be noted: 786-0 ccRCC cells stably expressing HRE-Luc; 24 h treatment; range of IC50 values. Here is the method:
Screens for inhibitory activity of compounds described herein were performed using 786-0 ccRCC cells that stably express HRE-Luc: 5 copies of the hypoxia-responsive element (HRE) fused to the pGL3 luciferase reporter (Promega Corp, Madison WI). 786-0 cells are pVHL deficient and thus constitutively express HIF-2α independently of cellular oxygen tension. Since 786-0 cells lack HIF-1α, HRE-driven luciferase activity is primarily HIF-2α driven, and has been previously validated. Cells were maintained at log phase growth in […] (DMEM) with 10% FBS in a humidified incubator at 37° C. with 5% CO2. For screening assays, cells were seeded at a density of 4,000 cells in 50 μl of complete media/well in quadruplicate wells/point in a 96-well plate. After 24 h, 50 μl of a 2× concentration of test compound was added to each well. Compounds were diluted from a 5-10 mM stock in DMSO and final concentrations of DMSO in each well in controls and treated wells were kept constant at ≤0.6% DMSO. After 24 h treatment, luciferase activity was measured using the Steady-Glo Luciferase assay system (Promega Corp) according to the manufacturer's protocol. Cell viability was measured in quadruplicate parallel wells using resazurin as recommended by the manufacturer (R&D systems, Minneapolis, MN). Data for luciferase and resazurin were normalized to DMSO treated controls (defining 100%) and wells containing assay reagent but no cells (defining 0%) and graphed using the log inhibitor versus normalized response option in Graphpad Prism 9.3.1 software. Representative data determined using Steady-Glo luciferase and resazurin are shown in FIGS. 1A and 1B respectively, with error bars showing SD. Filled diamonds, empty squares and empty triangles indicate treatment with 3, 8 and 22 respectively with results for HRE-Luc shown in FIG. 1A.
For `COc1nc(C)cc2[nH]c(Nc3nnc([C@H]4CC[C@H](OC)CC4)o3)nc12` [Compound 99, N-(4-methoxy-6-methyl-1H-imidazo[4,5-c]pyridin-2-yl)-5-((1r,4r)-4-methoxycyclohexyl)-1,3,4-oxadiazol-2-amine], the half-maximal inhibitory concentration (IC50) was below 10 µM.

Staying with this assay, now noted: Homo sapiens, 786-0, 24 h, 786-0 ccRCC cells stably expressing HRE-Luc; 24 h treatment; range of IC50 values.
As for `COc1cccc2sc(Nc3nnc(-c4ccc(F)cc4)o3)nc12` [Compound 1, 5-(4-fluorophenyl)-N-(4-methoxybenzo[d]thiazol-2-yl)-1,3,4-oxadiazol-2-amine], the IC50 was below 10 µM.
`COc1nccc2nc(Nc3nnc(N4CC(C)OC(C)C4)o3)[nH]c12` (stereo not shown) [Compound 70, 5-(2,6-dimethylmorpholino)-N-(4-methoxy-3H-imidazo[4,5-c]pyridin-2-yl)-1,3,4-oxadiazol-2-amine] yielded an IC50 below 10 µM.
On to `COc1cccc2nc(Nc3nnc(N4CCC(OC)CC4)o3)[nH]c12` [Compound 71, N-(7-methoxy-1H-benzo[d]imidazol-2-yl)-5-(4-methoxypiperidin-1-yl)-1,3,4-oxadiazol-2-amine], for which the IC50 was below 10 µM.
Still for that read-out and setting: next, `COc1cccc2nc(Nc3nnc(N4CCOCC4)o3)[nH]c12` [Compound 72, N-(7-methoxy-1H-benzo[d]imidazol-2-yl)-5-morpholino-1,3,4-oxadiazol-2-amine]: 10 to 50 µM; `COc1cccc2[nH]c(Nc3nnc(N4CCN(C)CC4)o3)nc12` [Compound 73, N-(4-methoxy-1H-benzo[d]imidazol-2-yl)-5-(4-methylpiperazin-1-yl)-1,3,4-oxadiazol-2-amine]: 50 to 100 µM.
Same read-out and setting: next, `COc1cccc2nc(Nc3nnc(C4CCN(C)CC4)o3)[nH]c12` [Compound 74, N-(7-methoxy-1H-benzo[d]imidazol-2-yl)-5-(1-methylpiperidin-4-yl)-1,3,4-oxadiazol-2-amine]: 10 to 50 µM.
On the same count and under the same terms, next, `COc1cccc2[nH]c(Nc3nnc(N4CCS(=O)(=O)CC4)o3)nc12` [Compound 76, 4-(5-((4-methoxy-1H-benzo[d]imidazol-2-yl)amino)-1,3,4-oxadiazol-2-yl)thiomorpholine 1,1-dioxide]: above 100 µM; `COc1ccc(-c2nnc(Nc3nc4cccc(OC)c4[nH]3)o2)cc1` [Compound 82, N-(7-methoxy-1H-benzo[d]imidazol-2-yl)-5-(4-methoxyphenyl)-1,3,4-oxadiazol-2-amine]: 10 to 50 µM.
In turn, `COc1ccc(-c2nnc(Nc3nc4c(OC)cccc4[nH]3)o2)c(C)c1` [Compound 83, N-(4-methoxy-1H-benzo[d]imidazol-2-yl)-5-(4-methoxy-2-methylphenyl)-1,3,4-oxadiazol-2-amine] came in with an IC50 above 100 µM.
`COc1ccc(-c2nnc(Nc3nc4c(OC)cccc4[nH]3)o2)cc1OC` [Compound 84, 5-(3,4-dimethoxyphenyl)-N-(4-methoxy-1H-benzo [d]imidazol-2-yl)-1,3,4-oxadiazol-2-amine] came in with a concentration for half-maximal inhibition (IC50) below 10 µM.
`COc1ccc(-c2nnc(Nc3nc4c(OC)cccc4[nH]3)o2)cc1F` [Compound 85, 5-(3-fluoro-4-methoxyphenyl)-N-(4-methoxy-1H-benzo[d]imidazol-2-yl)-1,3,4-oxadiazol-2-amine]: the half-inhibitory concentration (IC50) was above 100 µM.
In the case of `COc1cccc2[nH]c(Nc3nnc(-c4ccc5c(c4)OCCO5)o3)nc12` [Compound 86, 5-(2,3-dihydrobenzo[b][1,4]dioxin-6-yl)-N-(4-methoxy-1H-benzo[d]imidazol-2-yl)-1,3,4-oxadiazol-2-amine], the IC50 is 50 to 100 µM.
Consider `COc1cccc2[nH]c(Nc3nnc(-c4ccc5c(c4)CCO5)o3)nc12` [Compound 87, 5-(2,3-dihydrobenzofuran-5-yl)-N-(4-methoxy-1H-benzol[d]imidazol-2-yl)-1,3,4-oxadiazol-2-amine], for which the concentration for half-maximal inhibition (IC50) fell in the range of 10 to 50 µM.
On the same count and under the same terms, next, `CCOc1ccc(-c2nnc(Nc3nc4c(OC)cccc4[nH]3)o2)cc1OCC` [Compound 88, 5-(3,4-diethoxyphenyl)-N-(4-methoxy-1H-benzo[d]imidazol-2-yl)-1,3,4-oxadiazol-2-amine]: above 100 µM.
The compound `COc1cccc2[nH]c(Nc3nnc(-c4ccc5occc5c4)o3)nc12` [Compound 89, 5-(benzofuran-5-yl)-N-(4-methoxy-1H-benzo[d]imidazol-2-yl)-1,3,4-oxadiazol-2-amine] came in with an IC50 above 100 µM.
`COc1cccc2[nH]c(Nc3nnc(N4C[C@H](C)C[C@H](C)C4)o3)nc12` [Compound 92, 5-((3R,5S)-3,5-dimethylpiperidin-1-yl)-N-(4-methoxy-1H-benzo[d]imidazol-2-yl)-1,3,4-oxadiazol-2-amine] came in with an IC50 above 100 µM.
Still for that read-out and setting: next, `COc1cccc2nc(Nc3nnc(C4CCC(C(C)(C)C)CC4)o3)[nH]c12` (stereo not shown) [Compound 94, 5-(4-(tert-butyl)cyclohexyl)-N-(7-methoxy-1H-benzo[d]imidazol-2-yl)-1,3,4-oxadiazol-2-amine]: below 10 µM; `COc1cccc2nc(Nc3nnc(C4C[C@H]5CC[C@@H]4C5)o3)[nH]c12` (stereo partly drawn) [Compound 96, 5-((1R,4S)-bicyclo[2.2.1]heptan-2-yl)-N-(7-methoxy-1H-benzo[d]imidazol-2-yl)-1,3,4-oxadiazol-2-amine]: 10 to 50 µM; `[2H]C([2H])([2H])Oc1ccc(-c2nnc(Nc3nc4c(OC)nccc4[nH]3)o2)cc1OC([2H])([2H])[2H]` [Compound 97, 5-(3,4-Dimethoxy-d3-phenyl)-N-(4-methoxy-1H-imidazo[4,5-c]pyridin-2-yl)-1,3,4-oxadiazol-2-amine]: below 10 µM.
Same read-out and setting: next, `COc1nc(C)cc2[nH]c(Nc3nnc([C@H]4CC[C@@H](OC)CC4)o3)nc12` [Compound 100, N-(4-methoxy-6-methyl-1H-imidazo[4,5-c]pyridin-2-yl)-5-((1s,4s)-4-methoxycyclohexyl)-1,3,4-oxadiazol-2-amine]: below 10 µM.

The target of a further assay is T1, ISCA2 (Homo sapiens, UniProt Q86U28).
T1 construct: His6 (N); made in house; host or cells: E. coli Rosetta (DE3)
T1 sequence (Q86U28 9-154): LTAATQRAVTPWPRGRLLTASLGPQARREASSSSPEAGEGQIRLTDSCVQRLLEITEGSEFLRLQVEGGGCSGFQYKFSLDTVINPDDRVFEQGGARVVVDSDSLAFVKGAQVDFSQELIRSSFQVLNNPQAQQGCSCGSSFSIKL
The assay is described as follows: Thermal shift assay with recombinant ISCA2 (SYPRO Orange). In kind it is binding. To be noted: 200 μM compound; control wells 53.21±0.36. Here is the method: Thermal shift assays were performed by monitoring the change in protein melting temperature (Tm) in the absence or presence of test compounds, using the hydrophobic protein binding dye, SYPRO Orange (S6650, Thermo Fisher Scientific), measured using the LightCycler 480 (Roche Life Sciences, Indianapolis, IN) according to the manufacturer's protocol. Recombinant ISCA2 was produced by expressing amino acid residues 9-154 of ISCA2 (ISCA2 lacking its mitochondrial localization sequence) in the pET28 vector containing an N-terminal His6 tag in Rosetta (DE3) competent cells (Novagen, Millipore Sigma). ISCA2 production was induced by treating ISCA2 transformed log phase cells with 0.25 mM IPTG for 4 hours at 18° C. ISCA2 was purified using Ni^2+ affinity purification according to standard protocols and eluted in 50 mM Tris-C1 pH7.4, 150 mM NaCl, 5 mM DTT. Thermal shift assays were performed in 384-well plates using 1 μl of a 10× concentration of SYPRO Orange, 8 μl of ISCA2 (4 μg protein) and 1 μl of 1-2 mM stock of test compound per well. The LightCycler was used according to the following setup: LightCycler 480 Instrument Temperature Setup: First target of 20° C., with a Hold of 15 seconds; second target of 95° C., with Acquisition Mode of Continuous, and 10 acquisitions per degree c.; and third target of 20° C., with a Hold of 15 seconds. Tms were determined using Roche Protein Melting Analysis Software. Representative data are shown in FIGS. 6 and 7 using compound 1 and 26HCL at 200 and 100 µM final concentration respectively. […] These findings are supported by studies showing that re-expression of VHL (which increases ISCA2) and overexpression of ISCA2 itself, promotes the resistance of cells to the compounds (shown in FIG. 8).
Take `COc1cccc2sc(Nc3nnc(-c4ccc(F)cc4)o3)nc12` [Compound 1, 5-(4-fluorophenyl)-N-(4-methoxybenzo[d]thiazol-2-yl)-1,3,4-oxadiazol-2-amine]: the “Tm of ISCA2 in compound-treated wells” value was determined as 55.63±0.26 °C.

Still in this assay, the particulars now being: compound 1 and 26HCL at 200 and 100 μM final concentration respectively.
As for `COc1cccc2sc(Nc3nnc(-c4ccc(F)cc4)o3)nc12` [Compound 1, 5-(4-fluorophenyl)-N-(4-methoxybenzo[d]thiazol-2-yl)-1,3,4-oxadiazol-2-amine], the “change in melting temperature of ISCA2 (in words)” value is reported as “significant change in melting temperature of ISCA2”.

The subject of another assay is HIF-1α and HIF-2α. Put plainly: Western blots for HIF-1α and HIF-2α in ccRCC cells. Particulars: 786-0 or RCC10 ccRCC cells, 24h, relative to GAPDH. In kind it is cell-based, human. As for the experimental part:
(§1) Western blots were performed to determine the effects of the compounds on levels of HIF-2α and other relevant proteins, whereas qPCR was performed to determine the effects of compounds on transcript levels of HIF target genes. 786-0 or RCC10 cells were plated at 1×10E5 cells/well in 2 ml DMEM with 10% FBS/well in 6-well tissue culture plates. Cells were allowed to adhere overnight in a humidified incubator at 37° C. with 5% CO2, after which the appropriate concentrations of compounds in DMSO were added. DMSO concentrations were kept constant in all wells. After 24 h exposure to the compounds, cells were lysed and subjected to western blotting according to standard protocols. Antibodies for HIF-1α and HIF-2α and GAPDH were purchased from Cell Signaling Technology (Danvers, MA), whereas antibodies to IRP2 and pVHL were from Santa Cruz Biotechnology (Dallas, TX), and GPX4 antibody was from R&D Systems, Inc (Minneapolis, MN). Representative data in FIG. 2 show a dose-dependent effect of compounds in decreasing HIF-1/2α. Compounds also impact cellular iron sensing given by increased IRP2, which taken together indicate that cells sense decreased amounts of available iron, which triggers the iron starvation response initiated by IRP2 stabilization. Representative data shown in FIG. 3D show a dose dependent effect of the compounds on GPX4, which may indicate decreased resistance to ferroptosis. […] The data also show increased expression of ISCA2 with pVHL re-expression.
(Immunoblotting shows a protein as a band on a membrane.)
As for `COc1cccc2sc(Nc3nnc(-c4ccc(F)cc4)o3)nc12` [Compound 1, 5-(4-fluorophenyl)-N-(4-methoxybenzo[d]thiazol-2-yl)-1,3,4-oxadiazol-2-amine], the “effect on HIF-1α and HIF-2α protein (Western blot)” value is “decreases HIF-1α and HIF-2α”.

The subject of another assay is IRP2 and GPX4. The assay is described as follows: Western blots for cellular iron-sensing machinery (IRP2, GPX4). In kind it is cell-based, human. Particulars: 786-0 or RCC10 ccRCC cells, 24h, relative to GAPDH. Here is the method:
as §1
On to `COc1cccc2sc(Nc3nnc(-c4ccc(F)cc4)o3)nc12` [Compound 1, 5-(4-fluorophenyl)-N-(4-methoxybenzo[d]thiazol-2-yl)-1,3,4-oxadiazol-2-amine], for which the “effect on IRP2 protein (Western blot)” value is listed as “increases IRP2”.

A word on the IC50: it is the midpoint of a concentration-inhibition curve.
